# Measured values as given in patent publication US7157078B2, “Devices and methods for eliminating termite colonies” (The University of Florida Research Foundation, Inc., priority 2001, dated 2007).
# Test system: termites from the genus/specie Reticulitermes flavipes or Coptotermes formosanus
# Assay: Termiticide activity (Reference Example 3)
# Assay type: in vivo
# Conditions: 0.5% compound on Whatman #1 filter paper, 20 termites per well, triplicate
# Experimental: The tests, run in triplicate, are set up in three wells of a 6-well polystyrene microtiter plate (3 wells are empty). Four circles of either 3.2 cm Whatman #1 filter paper (cellulose) for the food controls and tests on compounds, or 3.2 cm Whatman GF/C glass microfibre filters (borosilicate glass) for the no-food controls are stacked in each well. For the food controls, 600 microliters of water are added to each wen. For the no-food controls 1200 microliters of water are added to those wells. If the test compounds are water soluble, they are added to the wells in 600 microliters of water to deliver 0.5% compound. Water insoluble test compounds are added to the wells in a solvent in which they are soluble to deliver 0.5% compound, the solvent is evaporated, and 600 microliters of water added per well.
# Termiticidal activity for a compound is measured using termites from the genus/specie Reticulitermes flavipes or Coptotermes formosanus. The termites are added in groups of 20 per well. Every 34 days the termites are counted. The number of days until 50% death (DTD50) and 100% death for termites is determined. These values for termites in the wells containing test compounds are compared to the food and no-food controls to determine which compounds display termiticidal activity.
# Various compounds were analyzed by the method of Reference Example 3.
row,Compound,DTD50 (number of days until 50% death)
1,OCC1OC(O)(C(F)(F)F)C(O)C(O)C1O (stereo not drawn),41 days
2,OCC1OC(F)C(F)C(O)C1O (stereo not drawn),33 days
3,OCC1OC(OC2C(CO)OC(Oc3ccccc3)C(O)C2O)C(O)C(O)C1O (stereo not drawn),27 days
4,CC(C)(C1CCC(O)CC1)C1CCC(O)CC1 (stereo not drawn) [CAS No. 80-04-6],62 days
5,CC(C)(c1ccc(O)cc1)c1ccc(O)cc1 [CAS No. 80-05-7],42 days
6,"OC[C@H]1O[C@@H](Oc2ccccc2)[C@H](O)[C@@H](O)[C@@H]1O [CAS No. 1464-44-4, Phenyl-beta-D-glycoside]",15 days
7,O=C(Nc1ccccc1)c1cccnc1 [CAS No. 1752-96-1],80 days
8,CC1(C)CC(O)CC(C)(C)N1O [CAS No. 2226-96-2],32 days
9,Cc1nc2cc(C)c(C)cc2[nH]1 [CAS No. 3363-56-2],63 days
10,CC(C)NCC(O)COc1cccc2ccccc12 (stereo not drawn) [CAS No. 4199-10-4],77 days
11,COc1ccc(NC(=O)CC(C)=O)cc1 [CAS No. 5437-98-9],31 days
12,CC(=O)c1ccc(-n2ccnc2)cc1 [CAS No. 10041-06-2],35 days
13,CC(=O)Oc1ccc(C(C)(C)c2ccc(OC(C)=O)cc2)cc1 [CAS No. 10192-62-8],70 days
14,COC(=O)C[S+]([O-])c1ccccc1 (stereo not drawn) [CAS No. 14090-83-6],35 days
15,O=c1c2ccccc2nnn1O [CAS No. 28230-32-2],80 days
16,NC1CCN(Cc2ccccc2)CC1 [CAS No. 50541-93-0],59 days
17,O=[N+]([O-])c1ccc(OC2OC(CO)C(OC3OC(CO)C(O)C(O)C3O)C(O)C2F)c([N+](=O)[O-])c1 (stereo not drawn) [CAS No. 154862-23-4],66 days
18,O=[N+]([O-])c1ccc(OC2OC(CO)C(OC3OC(CO)C(OC4OC(CO)C(O)C(O)C4O)C(O)C3O)C(O)C2F)c([N+](=O)[O-])c1 (stereo not drawn) [CAS No. 213193-76-1],60 days

# Same assay, conditions: at day 73; 0.5% compound on filter paper, 20 termites per well
row,Compound,termite death (printed in DTD50 column)
1,Cc1cc(C(C)(C)c2cc(C)c(O)c(C)c2)cc(C)c1O [CAS No. 5613-46-7],42% atday 73

# Same assay, conditions: by day 53; 0.5% compound on filter paper, 20 termites per well
row,Compound,termite death (printed in DTD50 column)
1,O=S(=O)(NCCc1c[nH]cn1)c1ccccc1 [CAS No. 195052-64-3],48%by day53

# Test system: termites
# Assay: Termiticide preference test (Reference Example 4)
# Assay type: in vivo
# Conditions: 100 termites per dish, about 7 days
# Experimental: The test is performed in 100 millimeter Petri dishes into which 20 grams of washed sand and 2 milliliters of water are distributed. Six circles (three plain and thee treated with the compound of interest) of Whatman #1 filter paper (15 millimeters) are used as food. The treated circles are prepared by pipetting a small volume (approximately 25 microliters) of a solution of the compound in an appropriate solvent onto the filter paper circles, and then evaporating the solvent.
# The filter paper circles are arranged in the dish in two rows using an alternating pattern of treated and untreated. One hundred termites are then added to the dish. The test is run for about 7 days to determine if any eating preference is seen between the treated and untreated filter paper circles.
row,Compound,preference test result (treated vs untreated filter paper circles)
1,CC(C)(C1CCC(O)CC1)C1CCC(O)CC1 (stereo not drawn) [CAS No. 80-04-6],passes the preference test
